The text below walks through data of ChEMBL document CHEMBL1201862, “PubChem BioAssay data set” (2004).

Activity calls are given as the source filed them.

One assay has as its target T1, Coagulation factor XII (Homo sapiens, UniProt P00748).
T1 sequence (P00748 whole entry): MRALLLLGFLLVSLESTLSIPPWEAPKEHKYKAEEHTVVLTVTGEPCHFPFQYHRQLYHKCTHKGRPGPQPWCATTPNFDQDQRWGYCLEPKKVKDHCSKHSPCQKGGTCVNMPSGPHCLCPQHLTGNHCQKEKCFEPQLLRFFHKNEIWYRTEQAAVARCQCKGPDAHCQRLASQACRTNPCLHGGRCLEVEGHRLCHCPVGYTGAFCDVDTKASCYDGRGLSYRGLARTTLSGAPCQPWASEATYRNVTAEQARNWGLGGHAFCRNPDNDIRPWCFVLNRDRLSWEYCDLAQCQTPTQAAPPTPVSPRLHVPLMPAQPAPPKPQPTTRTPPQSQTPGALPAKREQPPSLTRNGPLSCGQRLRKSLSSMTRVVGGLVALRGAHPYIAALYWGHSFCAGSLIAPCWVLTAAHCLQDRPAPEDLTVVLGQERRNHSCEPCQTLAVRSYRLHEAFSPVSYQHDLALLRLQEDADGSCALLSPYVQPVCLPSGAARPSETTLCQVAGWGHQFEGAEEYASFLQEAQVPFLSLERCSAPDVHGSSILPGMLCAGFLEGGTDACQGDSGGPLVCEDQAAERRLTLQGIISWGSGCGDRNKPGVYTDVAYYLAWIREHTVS
Nature of the assay: Factor XIIa Dose Response Confirmation from Single Well HTS. [Related pubchem assays (depositor defined):AID701]. The class given is functional.

For another assay, the target named is Ion channel NompC (Danio rerio, UniProt Q7T1G6). Nature of the assay: Dose response cell-based high-throughput screening assay for agonists of the transient receptor potential channel N1 (TRPN1). [Related pubchem assays (depositor defined):AID1424, AID1448]. Type of assay: functional.
The next assay deals with Mucolipin-3 (Homo sapiens, UniProt Q8TDD5). Nature of the assay: Fluorescence counterscreen assay for […] agonists: dose response cell-based high-throughput screening assay to identify agonists of the transient receptor potential channel ML3 (TRPML3). [Related pubchem assays: 1424, 1448 ]. Type of assay: functional.
A further assay deals with Vero. Nature of the assay: cells. The class given is functional. Particulars: Chlorocebus sabaeus.
Assay [1] has as its target T2, Corticotropin-releasing factor receptor 2/Corticotropin-releasing factor-binding protein (Homo sapiens, UniProt P24387+Q13324).
T2 sequence (Q13324 whole entry): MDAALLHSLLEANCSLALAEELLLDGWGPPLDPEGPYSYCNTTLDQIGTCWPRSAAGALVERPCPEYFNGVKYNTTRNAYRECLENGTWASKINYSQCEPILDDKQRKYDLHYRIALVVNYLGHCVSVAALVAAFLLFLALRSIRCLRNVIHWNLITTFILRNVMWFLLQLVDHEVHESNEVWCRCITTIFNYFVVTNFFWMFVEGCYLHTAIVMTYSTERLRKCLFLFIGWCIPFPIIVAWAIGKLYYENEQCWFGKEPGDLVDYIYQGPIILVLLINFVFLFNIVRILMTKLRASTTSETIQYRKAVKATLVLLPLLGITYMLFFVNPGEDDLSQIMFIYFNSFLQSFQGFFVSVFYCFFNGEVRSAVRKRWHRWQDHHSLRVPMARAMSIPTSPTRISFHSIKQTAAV
T2 sequence (P24387 whole entry): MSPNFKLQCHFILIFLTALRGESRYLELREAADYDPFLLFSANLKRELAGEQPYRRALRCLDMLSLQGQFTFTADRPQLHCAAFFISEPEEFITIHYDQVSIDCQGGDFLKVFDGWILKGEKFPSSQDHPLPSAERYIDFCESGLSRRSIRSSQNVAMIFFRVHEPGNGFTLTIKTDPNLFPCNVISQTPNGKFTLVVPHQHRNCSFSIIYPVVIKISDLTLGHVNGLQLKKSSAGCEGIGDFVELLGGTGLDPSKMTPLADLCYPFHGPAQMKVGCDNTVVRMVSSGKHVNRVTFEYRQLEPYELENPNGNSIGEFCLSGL
Nature of the assay: activators of CRF receptor 2 with binding protein – uHTS hits, confirmation (AID 602473). The class given is functional. Particulars: read-out: EC50_Mean.

The target in assay [2] is Epstein-Barr nuclear antigen 1 (Epstein-Barr virus (strain B95-8) (HHV-4) (Human herpesvirus 4), UniProt P03211). In words: EBNA-1 inhibitors, dose response, biochemical, fluorescence polarization, 1536-well (AID 2381).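 Also: fluorescence polarization of a Cy5 DNA probe bound by EBNA-1 protein.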 On the set-up: species or system human gammaherpesvirus 4.
The target in assay [3] is Lytic switch protein BZLF1 (Epstein-Barr virus (strain B95-8) (HHV-4) (Human herpesvirus 4), UniProt P03206). In words: EBV ZTA inhibitors, dose response, counter-screen for EBNA-1 inhibitor project, biochemical, fluorescence polarization, Epstein-Barr virus, 1536-well (AID 2377).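 Also: fluorescence polarization of Cy5-labelled ZRE DNA probe bound by purified Zta.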 On the set-up: species or system human gammaherpesvirus 4.
The target of assay [4] is Sphingosine 1-phosphate receptor 4 (Homo sapiens, UniProt O95977). In words: Late-stage fluorescence dose response cell-based assay to identify agonists of the Sphingosine 1-Phosphate Receptor 4 (S1P4): purchased compounds EC50. [Related pubchem assays (depositor defined):AID1509, AID1523, AID1563, AID1686, AID1701, AID1801]. The class given is functional.
For assay [5], the target named is T3, Intestinal-type alkaline phosphatase (Homo sapiens, UniProt P09923). In words: Dose Response confirmation of uHTS hits from a small molecule inhibitors of human intestinal alkaline phosphatase via a luminescent assay. [Related pubchem assays (depositor defined):AID2544, AID2574]. Type of assay: functional.
Assay [6] has as its target T3, Intestinal-type alkaline phosphatase. In words: human intestinal alkaline phosphatase activators, dose response, biochemical, luminescence, uHTS hits (AID 463120). The class given is functional.
Assay [7] in a line: decrease of PhoP-driven GFP reporter signal, S. Typhimurium, dose response, PhoP regulon inhibitor project, purified and synthesized compounds, set 2 (AID 2831). The class given is functional.
The target in assay [8] is T4, RNA-binding protein pos-1 (Caenorhabditis elegans, UniProt G5EF15).
T4 sequence (G5EF15 whole entry): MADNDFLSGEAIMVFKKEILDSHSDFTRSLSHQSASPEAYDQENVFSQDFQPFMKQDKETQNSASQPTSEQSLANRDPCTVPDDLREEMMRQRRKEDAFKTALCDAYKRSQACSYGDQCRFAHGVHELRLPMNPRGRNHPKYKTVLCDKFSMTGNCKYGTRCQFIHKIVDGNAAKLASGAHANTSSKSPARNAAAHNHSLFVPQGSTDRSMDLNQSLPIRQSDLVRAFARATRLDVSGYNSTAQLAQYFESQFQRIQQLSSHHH
In words: inhibitors of POS-1/mex-3 RNA binding, dose response, biochemical, fluorescence polarization (AID 1964).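 Also: purified POS-1 fused to maltose binding protein made in E. coli; potency of compounds blocking POS-1 binding to fluorescent RNA.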

The target of assay [9] is T5, SUMO-activating enzyme (Homo sapiens, UniProt Q9UBT2). In words: SUMOylation inhibitor hit validation, confirmation, SUMOylation inhibitor project, biochemical, AlphaScreen (AID 2018). The class given is functional.
Assay [10] deals with T6, Zinc finger protein mex-5 (Caenorhabditis elegans, UniProt Q9XUB2).
T6 sequence (Q9XUB2 whole entry): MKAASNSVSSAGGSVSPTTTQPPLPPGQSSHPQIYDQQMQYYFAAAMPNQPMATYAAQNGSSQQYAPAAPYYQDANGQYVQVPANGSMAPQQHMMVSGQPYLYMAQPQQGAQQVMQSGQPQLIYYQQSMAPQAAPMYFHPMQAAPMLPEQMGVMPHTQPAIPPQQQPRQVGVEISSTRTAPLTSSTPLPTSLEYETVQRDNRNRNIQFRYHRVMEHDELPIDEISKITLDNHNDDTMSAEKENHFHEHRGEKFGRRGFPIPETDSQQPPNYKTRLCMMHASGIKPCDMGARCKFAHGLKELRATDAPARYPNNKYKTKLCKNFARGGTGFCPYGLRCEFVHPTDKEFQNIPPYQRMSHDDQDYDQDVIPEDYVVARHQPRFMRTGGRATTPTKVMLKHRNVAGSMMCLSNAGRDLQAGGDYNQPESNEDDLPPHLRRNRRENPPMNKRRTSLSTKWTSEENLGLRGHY
Nature of the assay: MEX-5/TCR-2 RNA interaction inhibitors, dose response, biochemical, C. elegans, fluorescence polarization (AID 1960).

The target of assay [11] is T7, Voltage-gated N-type calcium channel alpha-1B subunit/Amyloid beta A4 precursor protein-binding family A member 1 (Homo sapiens, UniProt Q00975+Q02410). Type of assay: protein assay.
The target of assay [12] is T5, SUMO-activating enzyme. In words: inhibitors of in vitro SUMOylation cascade, primary screen, biochemical, HTRF, uHTS (AID 2006). Type of assay: protein-complex assay.
For assay [13], the target named is T7, Voltage-gated N-type calcium channel alpha-1B subunit/Amyloid beta A4 precursor protein-binding family A member 1. The class given is protein assay. This is another data set of the same source.
The target of assay [14] is Induced myeloid leukemia cell differentiation protein Mcl-1 (Homo sapiens, UniProt Q07820). Type of assay: functional.

T7 sequence (Q00975 whole entry): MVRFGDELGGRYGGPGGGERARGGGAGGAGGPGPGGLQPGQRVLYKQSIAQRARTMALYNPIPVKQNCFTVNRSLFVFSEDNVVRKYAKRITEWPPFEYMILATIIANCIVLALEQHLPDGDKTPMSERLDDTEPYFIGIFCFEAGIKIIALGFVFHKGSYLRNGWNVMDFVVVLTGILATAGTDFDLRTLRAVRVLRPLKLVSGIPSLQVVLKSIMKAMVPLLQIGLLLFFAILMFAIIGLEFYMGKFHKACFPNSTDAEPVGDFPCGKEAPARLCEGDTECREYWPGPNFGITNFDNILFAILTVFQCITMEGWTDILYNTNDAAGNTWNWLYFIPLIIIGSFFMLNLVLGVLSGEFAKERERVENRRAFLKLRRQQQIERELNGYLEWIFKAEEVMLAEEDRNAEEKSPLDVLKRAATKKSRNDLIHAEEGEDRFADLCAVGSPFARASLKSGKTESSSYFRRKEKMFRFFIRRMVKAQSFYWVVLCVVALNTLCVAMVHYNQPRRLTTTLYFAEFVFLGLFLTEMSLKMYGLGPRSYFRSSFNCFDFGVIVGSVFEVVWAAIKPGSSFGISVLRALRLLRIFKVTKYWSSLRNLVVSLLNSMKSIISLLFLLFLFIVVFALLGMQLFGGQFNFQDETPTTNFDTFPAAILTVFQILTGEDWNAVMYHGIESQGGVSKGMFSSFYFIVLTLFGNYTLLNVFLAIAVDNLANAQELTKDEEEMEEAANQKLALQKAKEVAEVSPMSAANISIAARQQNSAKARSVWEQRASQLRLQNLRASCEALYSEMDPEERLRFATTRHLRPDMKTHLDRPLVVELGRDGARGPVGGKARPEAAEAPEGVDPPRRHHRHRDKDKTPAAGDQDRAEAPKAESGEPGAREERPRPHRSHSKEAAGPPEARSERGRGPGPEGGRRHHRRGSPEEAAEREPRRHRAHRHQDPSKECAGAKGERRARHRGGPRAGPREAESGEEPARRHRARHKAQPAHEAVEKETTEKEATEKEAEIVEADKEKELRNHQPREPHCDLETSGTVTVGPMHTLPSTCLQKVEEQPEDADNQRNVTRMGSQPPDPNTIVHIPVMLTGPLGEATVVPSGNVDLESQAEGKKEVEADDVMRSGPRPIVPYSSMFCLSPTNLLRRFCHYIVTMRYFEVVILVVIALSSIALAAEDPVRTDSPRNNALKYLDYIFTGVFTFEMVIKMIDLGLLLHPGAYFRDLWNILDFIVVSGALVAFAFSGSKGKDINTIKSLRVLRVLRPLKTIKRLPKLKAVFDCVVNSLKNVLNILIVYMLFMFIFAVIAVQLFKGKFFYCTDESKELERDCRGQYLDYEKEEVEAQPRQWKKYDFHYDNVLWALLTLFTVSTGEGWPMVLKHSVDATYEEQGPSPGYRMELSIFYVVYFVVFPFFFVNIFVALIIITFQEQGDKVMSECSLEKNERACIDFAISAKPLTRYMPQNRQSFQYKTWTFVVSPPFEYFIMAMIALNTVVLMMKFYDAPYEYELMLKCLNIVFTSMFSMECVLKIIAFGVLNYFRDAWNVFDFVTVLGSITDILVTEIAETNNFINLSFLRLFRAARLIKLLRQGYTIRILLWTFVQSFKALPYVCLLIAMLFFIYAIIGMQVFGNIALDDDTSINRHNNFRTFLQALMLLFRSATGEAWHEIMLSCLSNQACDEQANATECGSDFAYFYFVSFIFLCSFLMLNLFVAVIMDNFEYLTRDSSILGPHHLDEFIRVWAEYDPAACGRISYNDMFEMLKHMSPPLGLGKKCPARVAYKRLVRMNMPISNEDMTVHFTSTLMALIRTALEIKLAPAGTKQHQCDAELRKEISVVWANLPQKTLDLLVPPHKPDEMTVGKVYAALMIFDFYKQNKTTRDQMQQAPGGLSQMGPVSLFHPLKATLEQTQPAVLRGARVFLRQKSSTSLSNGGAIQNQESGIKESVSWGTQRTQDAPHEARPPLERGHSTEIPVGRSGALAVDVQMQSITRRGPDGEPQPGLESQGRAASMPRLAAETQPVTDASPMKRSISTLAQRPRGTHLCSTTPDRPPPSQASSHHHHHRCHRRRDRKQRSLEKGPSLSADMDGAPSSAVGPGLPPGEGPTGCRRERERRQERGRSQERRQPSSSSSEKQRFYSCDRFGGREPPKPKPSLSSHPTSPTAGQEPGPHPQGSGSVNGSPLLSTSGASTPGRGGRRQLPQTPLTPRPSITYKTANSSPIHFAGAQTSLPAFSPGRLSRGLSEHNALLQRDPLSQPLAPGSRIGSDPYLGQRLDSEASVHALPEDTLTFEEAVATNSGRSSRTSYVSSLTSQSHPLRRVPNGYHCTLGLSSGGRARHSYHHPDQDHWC
T7 sequence (Q02410 whole entry): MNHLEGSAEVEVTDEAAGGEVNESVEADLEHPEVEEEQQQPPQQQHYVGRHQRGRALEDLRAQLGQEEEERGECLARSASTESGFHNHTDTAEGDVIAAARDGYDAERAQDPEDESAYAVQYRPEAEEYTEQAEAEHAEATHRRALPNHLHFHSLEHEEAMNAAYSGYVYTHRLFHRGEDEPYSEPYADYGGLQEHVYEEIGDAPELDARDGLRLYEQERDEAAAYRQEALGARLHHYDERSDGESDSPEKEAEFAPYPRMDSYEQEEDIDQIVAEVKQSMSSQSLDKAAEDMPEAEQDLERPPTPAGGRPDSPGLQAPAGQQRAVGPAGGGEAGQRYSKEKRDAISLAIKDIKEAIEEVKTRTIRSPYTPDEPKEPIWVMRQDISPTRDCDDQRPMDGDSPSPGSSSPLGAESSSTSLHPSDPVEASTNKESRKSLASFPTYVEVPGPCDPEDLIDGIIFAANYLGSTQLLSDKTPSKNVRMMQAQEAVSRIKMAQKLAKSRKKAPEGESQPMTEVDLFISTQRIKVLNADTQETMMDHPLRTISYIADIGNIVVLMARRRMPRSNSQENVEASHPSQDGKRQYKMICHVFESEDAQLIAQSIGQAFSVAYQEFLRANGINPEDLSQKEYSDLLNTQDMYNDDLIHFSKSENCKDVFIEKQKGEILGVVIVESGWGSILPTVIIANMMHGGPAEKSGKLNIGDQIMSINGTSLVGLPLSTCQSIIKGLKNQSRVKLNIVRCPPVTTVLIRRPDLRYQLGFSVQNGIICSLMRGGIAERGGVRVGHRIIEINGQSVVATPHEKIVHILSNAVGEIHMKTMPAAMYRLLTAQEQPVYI
T3 sequence (P09923 whole entry): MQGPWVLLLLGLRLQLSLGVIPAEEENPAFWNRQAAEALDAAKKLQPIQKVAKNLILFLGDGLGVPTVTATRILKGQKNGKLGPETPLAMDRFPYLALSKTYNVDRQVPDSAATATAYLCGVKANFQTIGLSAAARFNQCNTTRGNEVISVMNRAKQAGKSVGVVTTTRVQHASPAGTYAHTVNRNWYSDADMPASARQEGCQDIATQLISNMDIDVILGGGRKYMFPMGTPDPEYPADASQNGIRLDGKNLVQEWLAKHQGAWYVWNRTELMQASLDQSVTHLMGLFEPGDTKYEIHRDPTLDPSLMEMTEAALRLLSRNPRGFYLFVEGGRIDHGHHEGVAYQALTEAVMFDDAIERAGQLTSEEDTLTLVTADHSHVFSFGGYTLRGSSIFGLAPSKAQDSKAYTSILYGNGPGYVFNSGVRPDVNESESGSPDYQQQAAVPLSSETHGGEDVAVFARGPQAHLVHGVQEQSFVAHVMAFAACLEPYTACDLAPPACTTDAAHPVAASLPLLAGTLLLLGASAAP
T5 sequence (Q9UBE0 whole entry): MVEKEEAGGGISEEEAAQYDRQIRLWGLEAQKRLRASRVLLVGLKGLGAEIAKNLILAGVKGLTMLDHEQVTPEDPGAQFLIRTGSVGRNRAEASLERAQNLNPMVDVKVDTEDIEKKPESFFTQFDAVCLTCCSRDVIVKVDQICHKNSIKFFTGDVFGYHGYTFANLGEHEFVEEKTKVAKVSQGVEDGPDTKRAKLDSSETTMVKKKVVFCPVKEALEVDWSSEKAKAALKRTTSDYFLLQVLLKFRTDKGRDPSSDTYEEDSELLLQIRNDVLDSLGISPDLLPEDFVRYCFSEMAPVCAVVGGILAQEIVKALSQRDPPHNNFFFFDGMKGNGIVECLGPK
T5 sequence (Q9UBT2 whole entry): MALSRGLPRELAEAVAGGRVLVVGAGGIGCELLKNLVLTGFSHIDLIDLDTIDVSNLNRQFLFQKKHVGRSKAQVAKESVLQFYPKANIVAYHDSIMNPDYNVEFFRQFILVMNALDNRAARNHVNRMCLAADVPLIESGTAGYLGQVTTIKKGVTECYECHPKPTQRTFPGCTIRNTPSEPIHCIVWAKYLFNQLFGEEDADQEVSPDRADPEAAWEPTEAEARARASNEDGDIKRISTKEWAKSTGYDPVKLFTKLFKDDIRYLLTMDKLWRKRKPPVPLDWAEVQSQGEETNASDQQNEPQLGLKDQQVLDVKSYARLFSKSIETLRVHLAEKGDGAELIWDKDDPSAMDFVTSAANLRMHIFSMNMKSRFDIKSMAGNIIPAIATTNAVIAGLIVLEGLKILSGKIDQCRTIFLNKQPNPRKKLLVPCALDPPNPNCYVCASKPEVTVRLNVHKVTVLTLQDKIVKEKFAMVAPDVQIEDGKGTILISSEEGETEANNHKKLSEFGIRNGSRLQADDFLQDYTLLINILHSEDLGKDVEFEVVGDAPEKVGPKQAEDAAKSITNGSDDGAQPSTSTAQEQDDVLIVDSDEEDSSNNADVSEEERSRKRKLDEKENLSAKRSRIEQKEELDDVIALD
Sequence of Lytic switch protein BZLF1 (P03206 whole entry): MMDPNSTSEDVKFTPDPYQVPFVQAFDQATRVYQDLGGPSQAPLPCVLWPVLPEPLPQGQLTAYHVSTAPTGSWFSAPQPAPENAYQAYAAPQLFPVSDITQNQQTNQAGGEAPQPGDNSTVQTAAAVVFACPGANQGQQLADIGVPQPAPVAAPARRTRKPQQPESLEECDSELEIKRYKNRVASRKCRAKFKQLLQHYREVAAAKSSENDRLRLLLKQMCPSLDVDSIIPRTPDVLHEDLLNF

On to `Cc1ccc(CNC(=O)C[S+]([O-])CC(=O)O)cc1` (stereo not drawn), for which the IC50 on Coagulation factor XII was > 50 µM (inactive).
As to `Cc1ccc(S(=O)(=O)Nc2ccc(NC(=O)c3c(F)c(F)c(F)c(F)c3F)cc2)cc1`, the EC50 at Ion channel NompC was > 29.9 µM (inactive); on Mucolipin-3 it was > 29.9 µM (not active); in assay [1] it was 5.66 µM (active). Further, the CC50 in the assay with Vero was 23 µM (active).
In the case of `Cc1nn(Cc2ccccc2)c(Cl)c1C(=O)OC(C)C(=O)Nc1ccc(F)cc1Cl` (stereo not drawn), the concentration for half-maximal inhibition (IC50) is 5.89 µM (active) in assay [2] and > 111 µM (not active) in assay [3]. Moreover, the EC50 in assay [4] was > 50 µM (inactive).
Turning to `CC1(C)C[C@@H](O)CC2(C1)C[C@]1(C)CC(O)[C@H]2C(C)(C)C1` (stereo partly drawn), the IC50 in [5] was > 100 µM (inactive). For the same compound, in assay [6], the EC50 is > 100 µM (inactive).
`O=C1C2=C(Nc3ccccc3SC2c2cccc(Cl)c2)c2ccccc21` (stereo not drawn): the half-inhibitory concentration (IC50) in assay [7] is > 150 µM (active).
`COc1cc(OC)c2c(O)c3c(c(-c4c5c(c(O)c6c(OC)cc(OC)cc46)CO[C@@H](C)[C@H]5O)c2c1)[C@H](O)[C@H](C)OC3`: the EC50 in [8] and in assay [10] was > 300 µM (not active) in each case. Further, the IC50 at SUMO-activating enzyme [9] is 6.03 µM (active); in assay [11], 4.27 µM (active); on SUMO-activating enzyme [12], 17.1 µM (active); in assay [13], 20.3 µM (active); in [14], 2.51 µM (not active).
